Consider one compound from article PMC8252432 (Angewandte Chemie (International Ed. in English), 2021).

This series has as its system trypsin. The series is described as follows: Trypsin digestion of Angiotensin III, LC-MS. It counts as in vitro ADME. The conditions noted are these: 10 mM phosphate buffer pH 7.4, no nanoparticle (Figure 1a).

For the compound `CC[C@H](C)[C@H](NC(=O)[C@H](Cc1ccc(O)cc1)NC(=O)[C@@H](NC(=O)[C@@H](N)CCCN=C(N)N)C(C)C)C(=O)N[C@@H](Cc1c[nH]cn1)C(=O)N1CCC[C@H]1C(=O)N[C@@H](Cc1ccccc1)C(=O)O` [A‐III, Angiotensin III], the “time in which the peptide could be cleaved in buffer” value amounted to 120 min.
